Experimental data: US20140363838A1, “MICROPERFUSION IMAGING PLATFORM” (William Marsh Rice University, priority 2013, published 2014)
≈ marks a conversion by molar mass, not a printed value.

Experiments:
[1] = tested on: MDA-MB-468 cells; experiment: live/dead (calcein-AM/EthD-1) viability assay, microcarrier format on pBNC device; type: cell-based; conditions: Homo sapiens, BNC assays, microcarriers, 24 hour doxorubicin exposure, composite of 3 assays, read-out: Computed IC50 of composite dose curve (percent viability from EthD-1 intensity)
Method: Microcarriers cultured with MDA-MB-468 cells were harvested after 5-6 days of static culture with regular media exchanges every 48 hours. Doxorubicin solutions were prepared in fresh, warm media in volumes of 1 mL and added to aliquots of about 200 μL microcarriers and statically incubated for 24 hours at 37° C. Each aliquot was transferred to a sterile 2 ml micro-centrifuge tube where the microcarriers were allowed to settle. After supernatant was removed, microcarriers were rinsed in warm PBS, and incubated in fresh media at 37° C. until assayed. Negative control microcarriers were prepared by replacing this media with 70% methanol and incubating at room temperature for 30 minutes, and then suspended in PBS.
For each assay performed in triplicate (on a prior card embodiment with outlets at the bottom of the card), 4 negative control microcarriers were placed in the 4 outer corners of a 3×4 array of micro-containers through careful manipulation with precision forceps. […]
Images were acquired using a monochrome DVC camera connected to an Olympus BX-2 microscope (Center Valley, Pa.) with a 4× objective at a single focal plane at the top of the microcarriers. […] Intensities for both FITC and TxRed channels were measured separately, using a custom written ImageJ macro that extracts the average of the maxima of a series of line profile scans down each microcarrier. […]

[2] = tested on: MDA-MB-468 cells; experiment: live/dead (calcein-AM/EthD-1) viability assay, monolayer 96-well plate, fluorescence plate reader; type: cell-based; conditions: Homo sapiens, 96-well plate assays, 24 hour doxorubicin exposure, composite of 3 assays, read-out: Computed IC50 of composite dose curve (percent viability from EthD-1 intensity)
Method: Negative and positive controls were included as columns in each plate for the 96-well plate assays. Four negative control microcarriers were included in each assay on the BNC platform and one positive control assay served as the positive control for determining percent viability. Dose curves were plotted using a 5-parameter curve fitting algorithm in MATLAB (MATHWORKS®).
An equivalent viability assay was performed using standard 96-well plates for comparative purposes. Cells were seeded on 3, 96-well plates (CORNING®) at a final seeding density of about 10,000 cells per well. Plates were incubated at 37° C., 5% CO2 for 72 hours before media was exchanged for doxorubicin-containing media and incubated for an additional 24 hours. Negative control columns on each plate were prepared by replacing media with 70% methanol and incubating for 30 minutes at 37° C. Before imaging, all media was removed and cells were washed with warm PBS and replaced with a calcein-AM/EthD-1 solution with the same concentration as in the pBNC assay. […] A single point scan was performed on each well at excitation/emission wavelengths (nm) of 485/530 for calcein-AM and 530/645 for EthD-1.

[3] = tested on: MDA-MB-468 cells; experiment: nuclear analysis (fixed cells, DAPI staining) of microcarriers on pBNC platform
[4] = tested on: MDA-MB-468 cells; experiment: equivalent nuclear assay (fixed cells, DAPI staining) in monolayer
[5] = tested on: cells on spheroid microcarrier; experiment: doxorubicin uptake, chip versus plate/static, by Z depth; type: cell-based

With `COc1cccc2c1C(=O)c1c(O)c3c(c(O)c1C2=O)C[C@@](O)(C(=O)CO)C[C@@H]3O[C@H]1C[C@H](N)[C@H](O)[C@H](C)O1` [doxorubicin] the IC50 [1] was 4 µg/mL (≈ 7.36 µM), the IC50 [2] was 10 µg/mL (≈ 18.4 µM) and the “cells remaining attached (identified nuclear counts)” value ([3]; 100 μg/mL doxorubicin, 24 hour exposure, Cytodex I microcarriers) was “some cells remained attached”. For the same compound, the “total cell population (DAPI-stained nuclei / live-dead cell counting)” value ([3]; increasing doxorubicin concentrations, both counting methods) was “decrease in total cell population”, the “average uncorrected nuclear compactness” value ([3]; microcarrier format, increasing doxorubicin concentration) was “increase in the average uncorrected compactness” and the average nuclear area ([3]; microcarrier platform, across 10.000-fold doxorubicin concentration range) was “increases for low concentrations of doxorubicin and decreases for higher concentrations”. The “distribution of average DAPI intensity of nuclei” value ([3]; microcarrier platform, high doxorubicin concentrations (10 μg/mL)) was “shift in the distribution of DAPI intensities towards lower intensities”, the “cells remaining attached (identified nuclear counts)” value ([4]; 100 μg/mL doxorubicin, 24 hour exposure, monolayer) was “no monolayer cells remained attached” and the “average uncorrected nuclear compactness” value ([4]; monolayer format, increasing doxorubicin concentration) was “increase in the average uncorrected compactness”. The average nuclear area ([4]; monolayer platform, across 10.000-fold doxorubicin concentration range) was “increases for low concentrations of doxorubicin and decreases for higher concentrations”, the “distribution of average DAPI intensity of nuclei” value ([4]; monolayer platform, high doxorubicin concentrations (10 μg/mL)) was “shift in the distribution of DAPI intensities towards lower intensities” and the “doxorubicin penetration into spheroid microcarrier cell layers (z-slices)” value ([5]; 2 hours incubation, observed for both chip and plate platforms) was “only able to penetrate through a few outer layers of cells”. The “doxorubicin uptake, chip compared with static” value ([5]; chip vs static, FIG. 14) was “highly comparable”.
